This is an account of results in ChEMBL document CHEMBL4052756, “α-Pyrone derivatives with cytotoxic activities, from the endophytic fungus Phoma sp. YN02-P-3” (Bioorg Med Chem Lett, 2017).

The structures appear in SMILES notation. A value given as a limit tells only on which side of the number the result lay.

Holding throughout (format): functional, cell-based
The subject of experiment [1] is HCT-116. Description: Cytotoxic activity against human HCT116 cells.
For experiment [2], the system named is PC-3. Description: Cytotoxic activity against human PC3 cells.
In experiment [3] the test system is HL-60. The experiment can be described thus: Cytotoxic activity against human HL60 cells.

On to `COC(=O)/C=C/c1oc(=O)c(CO)c(OC)c1COC(C)=O`, for which the values for the IC50 in experiment [1], in experiment [2] and in experiment [3] were 9.84 µM, 5.9 µM and 1.04 µM, respectively.

As to `COC(=O)/C=C/c1oc(=O)c(COC(C)=O)c(OC)c1CO`, the IC50 in experiment [1] amounted to 2.31 µM; in experiment [2], 1.09 µM; in experiment [3], 0.65 µM.

In the case of `COc1c(C)c(/C=C/C(=O)O)oc(=O)c1CO`, the IC50 in experiment [1], in experiment [2] and in experiment [3] was greater than 50 µM throughout.

In turn, `COC(=O)C1C(c2oc(=O)c(COC(C)=O)c(OC)c2COC(C)=O)C(C(=O)OC)C1c1oc(=O)c(COC(C)=O)c(OC)c1COC(C)=O` (stereo not drawn) yielded an IC50 in experiment [3] of 4.56 µM.

On to `COc1c(C)c(/C=C/C(=O)O)oc(=O)c1C`, for which the IC50 in experiment [1], in experiment [2] and in experiment [3] was greater than 50 µM each time.

`COC(=O)C1C(c2oc(=O)c(CO)c(OC)c2CO)C(C(=O)OC)C1c1oc(=O)c(CO)c(OC)c1CO` (stereo not drawn): the IC50 in experiment [1], in experiment [2] and in experiment [3] was greater than 50 µM in each case.

For the compound `COC(=O)/C=C/c1oc(=O)c(CO)c(OC)c1CO`, the concentration for half-maximal inhibition (IC50) in experiment [1], in experiment [2] and in experiment [3] was greater than 50 µM throughout.

As for `COc1c(CO)c(/C=C/C(=O)O)oc(=O)c1CO`, the IC50 in experiment [1], in experiment [2] and in experiment [3] was greater than 50 µM each time.

For `O=c1[nH]cc(F)c(=O)[nH]1` [FLUOROURACIL], the IC50 in experiment [1] was found to be 17 µM; in experiment [2] it was 1.6 µM; in experiment [3], 2.8 µM.

For `COC(=O)/C=C/c1oc(=O)c(COC(C)=O)c(OC)c1COC(C)=O`, the results for the 50% inhibitory concentration (IC50) in experiment [1], in experiment [2] and in experiment [3] were 1.32 µM, 0.98 µM and 0.52 µM, respectively.

As usually defined, the IC50 is the concentration needed to halve the response being measured. A higher IC50 goes with weaker potency.
